Laboratory results published in patent US20210008069A1, “THERAPEUTIC AGENT FOR INFLAMMATORY BOWEL DISEASE” (DAIICHI SANKYO COMPANY, LIMITED, priority 2018, published 2021).

System: DSS-induced colitis model
Experiment: Efficacy in model of dextran sulfate sodium-induced colitis
Type: in vivo, C57BL/6J mice
Procedure: A colitis model was prepared by allowing 7-week-old male C57BL/6J mice to freely drink a 1.5% aqueous solution of dextran sulfate sodium (hereinafter, DSS) dissolved in pure water purified through a Milli-Q (registered trademark, Merck Millipore) filter (hereinafter, referred to as Milli-Q water). For the control group, only Milli-Q water was administered. Simultaneously with the start of administration of DSS in drinking water, feed prepared by mixing Compound A (0.01%, 0.03%) with powdered FR-2 was administered to the feed administered group. For the vehicle group with feeding, and the control group, to which no DSS was administered, only powdered FR-2 was administered. The day on which the administration of DSS in drinking water and the administration of the compound were started was designated as Day 1, and the administration was continued until Day 8.
Control group: Milli-Q water, FR-2 (N=10) Vehicle group: 1.5% DSS solution, FR-2 (N=10) Compound A 0.01% group: 1.5% DSS solution, FR-2 mixed with 0.01% Compound A (N=10) Compound A 0.03% group: 1.5% DSS solution, FR-2 mixed with 0.03% Compound A (N=10)
All animals were weighed in the morning from Day 1 to Day 8. On Day 8, the abdomen was opened under isoflurane anesthesia, blood was collected from the abdominal vein by an untreated syringe, the duodenum, large intestine, rectum, and anus were removed, and the length of the removed large intestine was measured with an electric caliper. The large intestine was cut open to observe the stool properties and score the degree of diarrhea.

[1] = 0.03% Compound A in feed, Day 1 to Day 8, 1.5% DSS in drinking water, compared with negative control

## Cc1nc(CC2CCN(c3ccc(-c4ccc(C[C@H](C)O)cc4)cc3)CC2)nc(C(=O)NCC(=O)O)c1O [Compound A, [({5-hydroxy-2-[(1-{4′-[(2S)-2-hydroxypropyl]biphenyl-4-yl}piperidin-4-yl)methyl]-6-methylpyrimidin-4-yl}carbonyl)amino]acetic acid]
[1]
  Inhibitory effect on intestinal length shortening (intestinal tract length on Day 8): significant inhibitory effect on intestinal length shortening
  Inhibitory effect on weight loss (amount of change in body weight on Day 8): significant inhibitory effect on weight loss
compound-administered group (0.01%, 0.03% in feed), 1.5% DSS, score 0-3 per Table 1, compared with negative control
  Diarrhea score on Day 8 (stool properties): tended to have improved stool properties
Overall conclusion, mice, administration in feed Day 1 to Day 8
  Effect on the clinical condition in DSS-induced colitis model: improving effect on the clinical condition
